Literature values in PMC5641599 (Molecular Metabolism, 2017).
Where two headings read alike, the source gives them in different places.

Experiments:
MC4R variants [1] = conditions: cited from earlier work
MC4R variants [2] = conditions: cited from earlier work; remark: listed apart in the source

NDP-MSH
cAMP Emax - Ligand no.3 (MC4R variants [1]; MC4R C40R, COS-7 cell line, ref Tarnow P, J Biol Chem, 2003): 118.6 % of WT
cAMP Emax - Ligand no.3 (MC4R variants [1]; MC4R C40R, ref Rong R, Clin Endocrinol, 2006): 87.0 % of WT
cAMP Emax - Ligand no.3 (MC4R variants [1]; MC4R C40Y, COS-7 cell line, ref Hughes DA, Hum Genet, 2009): 103.0 % of WT
cAMP Emax - Ligand no.3 (MC4R variants [1]; MC4R D37G, ref Hughes DA, Hum Genet, 2009): 83.0 % of WT
cAMP Emax - Ligand no.3 (MC4R variants [1]; MC4R F280AfsX12, ref Xiang Z, Biochemistry, 2006): 0.0 % of WT
cAMP Emax - Ligand no.3 (MC4R variants [1]; MC4R I251WfsX34, ref Xiang Z, Biochemistry, 2010): 0.0 % of WT
cAMP Emax - Ligand no.3 (MC4R variants [1]; MC4R L211MfsX6, HEK293, ref Ho G, J Biol Chem, 1999): 0.0 % of WT
cAMP Emax - Ligand no.3 (MC4R variants [1]; MC4R L211MfsX6, ref Xiang Z, Biochemistry, 2006): 0.0 % of WT
cAMP Emax - Ligand no.3 (MC4R variants [1]; MC4R Q43X, ref Alfieri A, Gene, 2010): 0.0 % of WT
cAMP Emax - Ligand no.3 (MC4R variants [1]; MC4R Q307X, COS-7 cell line, ref Reinehr T, Obesity, 2009): 0.0 % of WT
cAMP Emax - Ligand no.3 (MC4R variants [1]; MC4R Q307X, ref Santoro N, BMC Med Genet, 2009): 0.0 % of WT
cAMP Emax - Ligand no.3 (MC4R variants [1]; MC4R R7C, COS-7 cell line, ref Hinney A, J Clin Endocrinol Metab, 2006): 75.0 % of WT
cAMP Emax - Ligand no.3 (MC4R variants [1]; MC4R R7C, ref Fan ZC, J Cell Mol Med, 2009): 102.0 % of WT
cAMP Emax - Ligand no.3 (MC4R variants [1]; MC4R S19AfsX34, ref Alfieri A, Gene, 2010): 0.0 % of WT
cAMP Emax - Ligand no.3 (MC4R variants [1]; MC4R S36T, COS-7 cell line, ref Hughes DA, Hum Genet, 2009): 88.0 % of WT
cAMP Emax - Ligand no.3 (MC4R variants [1]; MC4R T11A, ref Tao YX, J Clin Endocrinol Metab, 2005): 109.0 % of WT
cAMP Emax - Ligand no.3 (MC4R variants [1]; MC4R T246DfsX41, HEK293, ref Ho G, J Biol Chem, 1999): 0.0 % of WT
cAMP Emax - Ligand no.3 (MC4R variants [1]; MC4R VADML88_92del, ref Donohoue PA, J Clin Endocrinol Metab, 2003): 0.0 % of WT
cAMP Emax - Ligand no.3 (MC4R variants [1]; MC4R W16X, COS-7, ref Bolze F, Pharmacogenomics J, 2013): 20.0 % of WT
cAMP Emax - Ligand no.3 (MC4R variants [1]; MC4R Y35C, ref Rong R, Clin Endocrinol, 2006): 105.0 % of WT
cAMP Emax - Ligand no.3 (MC4R variants [1]; MC4R Y35X, ref Xiang Z, Biochemistry, 2006): 0.0 % of WT
Binding Bmax (% of WT) (MC4R variants [2]; MC4R A303P, ref Hohenadel MG, Int J Obes, 2014): 22.4 % of WT
Binding Bmax (% of WT) (MC4R variants [2]; MC4R A303T, ref Tan K, Endocrinology, 2009): 86.6 % of WT
Binding Bmax (% of WT) (MC4R variants [2]; MC4R C84R, HEK293 cell line, ref Huang H, Int J Biol Sci, 2014): 5.0 % of WT
Binding Bmax (% of WT) (MC4R variants [2]; MC4R C84R, ref Fan ZC, J Cell Mol Med, 2009): 0.0 % of WT
Binding Bmax (% of WT) (MC4R variants [2]; MC4R C271Y, HEK293 cell line, ref Huang H, Int J Biol Sci, 2014): 70.0 % of WT
Binding Bmax (% of WT) (MC4R variants [2]; MC4R C271Y, ref Tao YX, Endocrinology, 2003): 0.0 % of WT
Binding Bmax (% of WT) (MC4R variants [2]; MC4R C271Y, ref Xiang Z, Biochemistry, 2006): 6.7 % of WT
Binding Bmax (% of WT) (MC4R variants [2]; MC4R D90N, COS-7 cell line, ref Biebermann H, Diabetes, 2003): 80.0 % of WT
Binding Bmax (% of WT) (MC4R variants [2]; MC4R D90N, ref Xiang Z, Biochemistry, 2010): 108.1 % of WT
Binding Bmax (% of WT) (MC4R variants [2]; MC4R E61K, ref Tan K, Endocrinology, 2009): 39.6 % of WT
Binding Bmax (% of WT) (MC4R variants [2]; MC4R E61K, ref Xiang Z, Biochemistry, 2010): 2.0 % of WT
Binding Bmax (% of WT) (MC4R variants [2]; MC4R E308K, ref Xiang Z, Biochemistry, 2010): 37.8 % of WT
Binding Bmax (% of WT) (MC4R variants [2]; MC4R F51L, ref Tao YX, J Clin Endocrinol Metab, 2005): 108.0 % of WT
Binding Bmax (% of WT) (MC4R variants [2]; MC4R F51L, ref Xiang Z, Biochemistry, 2010): 113.5 % of WT
Binding Bmax (% of WT) (MC4R variants [2]; MC4R G55D, ref Tan K, Endocrinology, 2009): 68.6 % of WT
Binding Bmax (% of WT) (MC4R variants [2]; MC4R G55V, ref Hohenadel MG, Int J Obes, 2014): 55.4 % of WT
Binding Bmax (% of WT) (MC4R variants [2]; MC4R G55V, ref Tan K, Endocrinology, 2009): 128.5 % of WT
Binding Bmax (% of WT) (MC4R variants [2]; MC4R G98R, HEK293 cell line, ref Huang H, Int J Biol Sci, 2014): 0.0 % of WT
Binding Bmax (% of WT) (MC4R variants [2]; MC4R G98R, ref Xiang Z, Biochemistry, 2010): 0.541 % of WT
Binding Bmax (% of WT) (MC4R variants [2]; MC4R I69R, HEK293 cell line, ref Huang H, Int J Biol Sci, 2014): 0.0 % of WT
Binding Bmax (% of WT) (MC4R variants [2]; MC4R I69T, ref Tan K, Endocrinology, 2009): 24.8 % of WT
Binding Bmax (% of WT) (MC4R variants [2]; MC4R I69T, ref Xiang Z, Biochemistry, 2010): 8.1 % of WT
Binding Bmax (% of WT) (MC4R variants [2]; MC4R I102S, ref Roubert P, J Endocrinol, 2010): 23.5 % of WT
Binding Bmax (% of WT) (MC4R variants [2]; MC4R I102S, ref Tao YX, J Clin Endocrinol Metab, 2005): 0.0 % of WT
Binding Bmax (% of WT) (MC4R variants [2]; MC4R I102S, ref Xiang Z, Biochemistry, 2006): 1.6 % of WT
Binding Bmax (% of WT) (MC4R variants [2]; MC4R I102T, ref Larsen LH, J Clin Endocrinol Metab, 2005): 115.0 % of WT
Binding Bmax (% of WT) (MC4R variants [2]; MC4R I102T, ref Roubert P, J Endocrinol, 2010): 51.0 % of WT
Binding Bmax (% of WT) (MC4R variants [2]; MC4R I102T, ref Tao YX, J Clin Endocrinol Metab, 2005): 20.0 % of WT
Binding Bmax (% of WT) (MC4R variants [2]; MC4R I301T, ref Nijenhuis WA, J Biol Chem, 2003): 10.0 % of WT
